Experimental data taken from patent publication US5436229A, “Bisulfite adducts of arginine aldehydes” (Eli Lilly and Company, priority 1994, dated 1995).
Non-standard residues stand in square brackets, D forms with d. Residues, ends and D or L forms follow the SMILES beside them. dCha = N[C@H](CC1CCCCC1)C(=O)O

Legend:
human plasma [1] = assay: Human plasma anticoagulation, prothrombin time (PT); assay type: biochemical
Method in brief: (§1)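 Compounds added across a wide concentration range to human plasma; APTT, PT and TT clotting times measured on a coagulation instrument, bovine thrombin used for plasma assays. Concentration doubling clotting time estimated by linear extrapolation.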

factor Xa = biological target: T1, factor Xa (Homo sapiens, UniProt P00742); assay: Serine protease inhibition (Kass), factor Xa; assay type: biochemical
T1 construct: Human factors X, Xa, IXa, XIa, and XIIa are purchased from Enzyme Research Laboratories; purchased Enzyme Research Laboratories, South Bend, Ind
Method in brief: (§2)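 Chromogenic p-nitroanilide substrate assays run as for human thrombin; trypsin with N-Benzoyl-Phe-Val-Arg-p-nitroanilide, human factor Xa with N-Benzoyl-Ile-Glu-Gly-Arg-p-nitroanilide. Values are association constants (Kass).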

[2] = biological target: T2, tissue plasminogen activator (t-PA) (Homo sapiens, UniProt P00750); assay: Serine protease inhibition (Kass), t-PA; assay type: biochemical
T2 construct: purchased American Diagnostica, Greenwich, Conn

Bovine trypsin = biological target: T3, Bovine trypsin (Bos taurus, UniProt P00760); assay: Serine protease inhibition (Kass), trypsin; assay type: biochemical
T3 construct: Bovine trypsin is purchased from Worthington Biochemicals; purchased Worthington Biochemicals, Freehold, N.J
T3 sequence (P00760 24-246): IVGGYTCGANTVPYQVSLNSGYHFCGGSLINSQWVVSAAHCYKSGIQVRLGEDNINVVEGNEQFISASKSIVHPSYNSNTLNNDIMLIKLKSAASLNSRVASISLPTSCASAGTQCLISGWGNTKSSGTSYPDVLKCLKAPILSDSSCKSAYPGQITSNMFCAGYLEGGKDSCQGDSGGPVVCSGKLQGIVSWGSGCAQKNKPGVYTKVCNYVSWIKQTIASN
Method in brief: as §2

human plasma [3] = assay: Human plasma anticoagulation, thrombin time (TT); assay type: biochemical
Method in brief: as §1

Human plasmin = biological target: T4, Human plasmin (Homo sapiens, UniProt P00747); assay: Serine protease inhibition (Kass), plasmin; assay type: biochemical
T4 construct: Human plasmin is purchased from Boehringer Mannheim; purchased Boehringer Mannheim, Indianapolis, Ind
Method in brief: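 Kass values come from the thrombin chromogenic procedure applied to fibrinolytic proteases. t-PA (nt-PA single chain, or mt-PA6) paired with substrate H-D-Ile-Pro-Arg-p-nitroanilide; human plasmin paired with H-D-Val-Leu-Lys-p-nitroanilide.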

[4] = Index of Bioavailability (plasma TT AUC, oral vs i.v.); assay type: in vivo; settings: rats, oral vs i.v. bolus
Excerpt: Assays are done in duplicate and averaged.
Each sample population represents alternating sequential time points.

human thrombin = human thrombin (Homo sapiens, UniProt P00734); assay: Thrombin amidase inhibition (Kass), chromogenic substrate; assay type: biochemical
Method in brief: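 Kass, in liter per mole, was averaged over several compound concentrations, using free thrombin from a rate standard curve and free inhibitor as added minus bound. Hydrolysis of chromogenic substrate (0.25 mg/ml solution) was monitored at 405 nm with human thrombin (8 NIH units/ml solution) in Tris-NaCl buffer pH 7.4, compound in 50% aqueous methanol.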

human plasma [5] = assay: Human plasma anticoagulation, activated partial thromboplastin time (APTT); assay type: biochemical
Method in brief: as §1

T1 sequence (P00742 235-488 limits assumed): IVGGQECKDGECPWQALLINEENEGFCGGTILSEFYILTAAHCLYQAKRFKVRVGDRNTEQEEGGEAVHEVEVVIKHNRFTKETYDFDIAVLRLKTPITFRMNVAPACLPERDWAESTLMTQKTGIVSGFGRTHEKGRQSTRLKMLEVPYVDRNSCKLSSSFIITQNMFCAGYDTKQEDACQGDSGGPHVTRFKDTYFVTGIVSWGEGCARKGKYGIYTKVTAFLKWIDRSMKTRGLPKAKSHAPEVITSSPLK
T1 sequence (P00742 41-179 partner limits assumed): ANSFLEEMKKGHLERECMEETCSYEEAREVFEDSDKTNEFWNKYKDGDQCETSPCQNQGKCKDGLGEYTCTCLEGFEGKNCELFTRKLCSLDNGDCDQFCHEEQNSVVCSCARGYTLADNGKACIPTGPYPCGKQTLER
T2 sequence (P00750 36-562): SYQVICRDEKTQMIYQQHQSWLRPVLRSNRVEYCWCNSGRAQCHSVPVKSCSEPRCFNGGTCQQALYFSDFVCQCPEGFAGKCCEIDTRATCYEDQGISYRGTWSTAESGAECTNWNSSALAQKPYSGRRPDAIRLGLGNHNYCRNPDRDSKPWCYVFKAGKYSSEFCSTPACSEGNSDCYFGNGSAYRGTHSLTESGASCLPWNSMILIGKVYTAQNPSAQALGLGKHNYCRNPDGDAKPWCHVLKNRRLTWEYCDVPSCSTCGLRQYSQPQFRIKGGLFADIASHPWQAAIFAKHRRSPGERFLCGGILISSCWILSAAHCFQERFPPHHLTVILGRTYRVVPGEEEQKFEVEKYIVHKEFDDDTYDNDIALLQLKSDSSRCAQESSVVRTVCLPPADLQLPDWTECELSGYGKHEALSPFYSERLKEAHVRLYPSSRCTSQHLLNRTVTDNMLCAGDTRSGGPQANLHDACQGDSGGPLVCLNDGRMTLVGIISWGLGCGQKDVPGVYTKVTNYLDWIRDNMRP
T4 sequence (P00747 581-810 limits assumed): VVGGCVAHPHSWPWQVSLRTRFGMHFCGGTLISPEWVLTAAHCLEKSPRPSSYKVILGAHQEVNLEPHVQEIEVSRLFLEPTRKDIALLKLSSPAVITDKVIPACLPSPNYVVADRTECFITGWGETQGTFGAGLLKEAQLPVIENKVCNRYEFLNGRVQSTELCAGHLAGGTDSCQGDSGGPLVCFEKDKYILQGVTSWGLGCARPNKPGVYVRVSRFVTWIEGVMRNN
T4 sequence (P00747 97-580 partner limits assumed): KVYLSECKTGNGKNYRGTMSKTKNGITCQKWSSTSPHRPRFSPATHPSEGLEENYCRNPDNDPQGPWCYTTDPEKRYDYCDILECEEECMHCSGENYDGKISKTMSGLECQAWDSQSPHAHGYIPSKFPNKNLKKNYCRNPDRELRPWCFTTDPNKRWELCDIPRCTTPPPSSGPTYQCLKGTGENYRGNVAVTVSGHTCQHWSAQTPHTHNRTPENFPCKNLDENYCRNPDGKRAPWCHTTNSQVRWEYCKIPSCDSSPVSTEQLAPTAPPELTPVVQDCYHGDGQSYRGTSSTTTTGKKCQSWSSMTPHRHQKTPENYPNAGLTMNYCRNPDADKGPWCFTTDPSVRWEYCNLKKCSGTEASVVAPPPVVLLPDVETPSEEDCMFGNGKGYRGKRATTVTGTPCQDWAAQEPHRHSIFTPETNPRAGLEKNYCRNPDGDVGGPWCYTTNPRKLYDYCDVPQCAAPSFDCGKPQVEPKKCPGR

| SMILES | 2 × Clotting time PT (human plasma [1]) | Kass Xa (factor Xa) | Kass t-PA [2] | Kass Trypsin (Bovine trypsin) | 2 × Clotting time TT (human plasma [3]) | Kass Plasmin (Human plasmin) | Percent Relative Activity (Index of Bioavailability) [4] | Kass Human Thrombin (human thrombin) | 2 × Clotting time APTT (human plasma [5]) |
| --- | --- | --- | --- | --- | --- | --- | --- | --- | --- |
| CS(=O)(=O)N[C@H](Cc1ccccc1)C(=O)N1CCC[C@H]1C(=O)N[C@H](C=O)CCCNC(=N)N.Cl [Example 51, N-(methylsulfonyl)-D-phenylalanyl-L-Prolinyl-L-Arginine Aldehyde Hydrochloride] | 530 ng/mL | 2.4 L/mol × 10^6 | 13 L/mol × 10^6 | 220 L/mol × 10^6 | 21 ng/mL | 17 L/mol × 10^6 | 27% | 690 L/mol × 10^6 | 330 ng/mL |
| Cl.Cn1c(C(=O)N[C@H](Cc2ccccc2)C(=O)N2CCC[C@H]2C(=O)N[C@H](C=O)CCCNC(=N)N)cc2ccccc21 [Example 45, N-(1-methylindolyl-2-carbonyl)-D-phenylalanyl-L-Prolinyl-L-Arginine Aldehyde Hydrochloride] | 870 ng/mL | 0.51 L/mol × 10^6 | 31 L/mol × 10^6 | 120 L/mol × 10^6 | 43 ng/mL | 7.9 L/mol × 10^6 | 2% | 850 L/mol × 10^6 | 440 ng/mL |
| CC(C)S(=O)(=O)N[C@H](Cc1ccccc1)C(=O)N1CCC[C@H]1C(=O)N[C@H](C=O)CCCNC(=N)N.Cl [Example 55, N-(isopropylsulfonyl)-D-phenylalanyl-L-Prolinyl-L-Arginine Aldehyde Hydrochloride] | 510 ng/mL | 6.0 L/mol × 10^6 | 3.5 L/mol × 10^6 | 260 L/mol × 10^6 | 13 ng/mL | 25 L/mol × 10^6 | 10% | 460 L/mol × 10^6 | 270 ng/mL |
| CCCS(=O)(=O)N[C@H](Cc1ccccc1)C(=O)N1CCC[C@H]1C(=O)N[C@H](C=O)CCCNC(=N)N.Cl [Example 53, N-(n-propylsulfonyl)-D-phenylalanyl-L-Prolinyl-L-Arginine Aldehyde Hydrochloride] | 510 ng/mL | 13 L/mol × 10^6 | 2.8 L/mol × 10^6 | 480 L/mol × 10^6 | 6 ng/mL | 29 L/mol × 10^6 | 14% | 1,700 L/mol × 10^6 | 220 ng/mL |
| Cl.N=C(N)NCCC[C@@H](C=O)NC(=O)[C@@H]1CCCN1C(=O)[C@@H](Cc1ccccc1)NS(=O)(=O)c1ccccc1 [Example 57, N-(phenylsulfonyl)-D-phenylalanyl-L-Prolinyl-L-Arginine Aldehyde Hydrochloride] | 930 ng/mL | 3.6 L/mol × 10^6 | 2.3 L/mol × 10^6 | 180 L/mol × 10^6 | 14 ng/mL | 19 L/mol × 10^6 | 3% | 270 L/mol × 10^6 | 450 ng/mL |
| CCCCS(=O)(=O)N[C@H](Cc1ccccc1)C(=O)N1CCC[C@H]1C(=O)N[C@H](C=O)CCCNC(=N)N.Cl [Example 54, N-(n-butylsulfonyl)-D-phenylalanyl-L-Prolinyl-L-Arginine Aldehyde Hydrochloride] | 700 ng/mL | 8.3 L/mol × 10^6 | 0.83 L/mol × 10^6 | 230 L/mol × 10^6 | 18 ng/mL | 27 L/mol × 10^6 | 18% | 470 L/mol × 10^6 | 300 ng/mL |
| Cl.N=C(N)NCCC[C@@H](C=O)NC(=O)[C@@H]1CCCN1C(=O)[C@@H](Cc1ccccc1)NS(=O)(=O)c1ccc(F)cc1F [Example 58, N-(2,4-difluorophenylsulfonyl)-D-phenylalanyl-L-Prolinyl-L-Arginine Aldehyde Hydrochloride] | 940 ng/mL | 11 L/mol × 10^6 | 2.4 L/mol × 10^6 | 160 L/mol × 10^6 | 21 ng/mL | 25 L/mol × 10^6 | 6% | 230 L/mol × 10^6 | 350 ng/mL |
| Cl.N=C(N)NCCC[C@@H](C=O)NC(=O)[C@@H]1CCCN1C(=O)[C@@H](Cc1ccccc1)NCC1CCCCC1 [Example 74, N-(cyclohexylmethyl)-D-phenylalanyl-L-Prolinyl-L-Arginine Aldehyde Hydrochloride] | 1,200 ng/mL | 0.11 L/mol × 10^6 | 0.046 L/mol × 10^6 | 69 L/mol × 10^6 | 16 ng/mL | 0.49 L/mol × 10^6 | 1% | 480 L/mol × 10^6 | 860 ng/mL |
| CCS(=O)(=O)N[C@H](CC1CCCCC1)C(=O)N1CCC[C@H]1C(=O)N[C@H](C=O)CCCNC(=N)N.Cl [Example 65, N-(ethylsulfonyl)-D-cyclohexylalanyl-L-Prolinyl-L-Arginine Aldehyde Hydrochloride] | 730 ng/mL | 20 L/mol × 10^6 | 0.73 L/mol × 10^6 | 200 L/mol × 10^6 | 25 ng/mL | 45 L/mol × 10^6 | 19% | 550 L/mol × 10^6 | 260 ng/mL |
| CC(=O)N[C@H](CC1CCCCC1)C(=O)N1CCC[C@H]1C(=O)N[C@H](C=O)CCCNC(=N)N.Cl [Example 72, N-(acetyl)-D-cyclohexylalanyl-L-Prolinyl-L-Arginine Aldehyde Hydrochloride] (Ac-[dCha]-Pro-Arg-aldehyde) | 3,500 ng/mL | 1.1 L/mol × 10^6 | 0.035 L/mol × 10^6 | 12 L/mol × 10^6 | 92 ng/mL | 0.61 L/mol × 10^6 | 9% | 26 L/mol × 10^6 | 1,900 ng/mL |
| Cl.N=C(N)NCCC[C@@H](C=O)NC(=O)[C@@H]1CCCN1C(=O)[C@@H](Cc1ccccc1)NC(=O)c1cccnc1 [Example 47, N-(nicotinoyl)-D-phenylalanyl-L-Prolinyl-L-Arginine Aldehyde Hydrochloride] | 1,700 ng/mL | 0.080 L/mol × 10^6 | 0.17 L/mol × 10^6 | 12 L/mol × 10^6 | 47 ng/mL | 0.41 L/mol × 10^6 | 3% | 58 L/mol × 10^6 | 1,300 ng/mL |
